Key:
[1] = molecular target: β1 receptors, guinea pig right atria (Cavia porcellus, UniProt H0W3H1); assay: cell-based; conditions: Table IV; mean, n ≥ 2, range ≤ ± 0.2 units; read-out: pA2 Atria (converted)
Method: Each tissue was suspended between a fixed glass rod and a Statham Universal Transducer connected to a Beckman recorder. Atria were allowed to beat spontaneously under a loading tension of approximately 0.5 gm. Intrinsic depressant or stimulant activity was determined for each compound by progressively increasing concentrations in the tissue baths at 60-minute intervals. Tissues were not washed between increments. The maximum concentration showing little or no cardiodepressant activity was chosen for blockade experiments. Changes in rate in response to isoproterenol, a standard β-receptor agonist, were measured in the absence and presence of test compounds. Spiral strips of guinea pig trachea were suspended under 5 gm resting tension and incubated with phentolamine, tropolone and cocaine. Active tension was generated by addition of carbachol (3.0×10^-7 M) and decreases in tension in response to isoproterenol were quantitated. Cumulative concentration-response curves were produced with isoproterenol both before and after 60-minute incubation of test compounds with atria and trachea. […] The blocking potency of test compounds was estimated by computing pA2 values (-log KB) by the method of Furchgott, the Pharmacological Differentiation of Adrenergic Receptors, Ann. […] The degree of cardioselectivity was estimated from the ratio, KB trachea/KB atria (10^(pA2 atria-pA2 trachea)). A ratio greater than one indicates cardioselectivity. Test drugs were dissolved in distilled water and added to the bath (30 ml) in a volume of 10 or 100 μl.

[2] = Ocular toxicity noted in corneal anesthesia test; format: in vivo; conditions: Table IV footnote e
[3] = molecular target: β2 receptors, guinea pig trachea (Cavia porcellus, UniProt Q8K4Z4); assay: cell-based; conditions: Table IV; mean, n ≥ 2, range ≤ ± 0.2 units; read-out: pA2 Trachea (converted)
Sequence of β2 receptors, guinea pig trachea (Q8K4Z4 whole entry): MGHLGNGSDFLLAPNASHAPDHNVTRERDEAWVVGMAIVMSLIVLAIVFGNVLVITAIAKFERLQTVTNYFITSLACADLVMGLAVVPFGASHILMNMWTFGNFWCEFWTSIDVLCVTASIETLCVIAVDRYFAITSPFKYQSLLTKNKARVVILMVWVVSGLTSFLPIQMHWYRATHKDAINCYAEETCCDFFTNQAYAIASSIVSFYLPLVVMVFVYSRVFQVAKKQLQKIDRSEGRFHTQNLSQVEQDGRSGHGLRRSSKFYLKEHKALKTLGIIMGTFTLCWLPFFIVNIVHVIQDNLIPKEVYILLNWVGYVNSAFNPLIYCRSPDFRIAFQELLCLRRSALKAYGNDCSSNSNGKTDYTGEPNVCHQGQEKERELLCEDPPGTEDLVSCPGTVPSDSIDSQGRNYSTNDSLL
Method: Each tissue was suspended between a fixed glass rod and a Statham Universal Transducer connected to a Beckman recorder. Atria were allowed to beat spontaneously under a loading tension of approximately 0.5 gm. Intrinsic depressant or stimulant activity was determined for each compound by progressively increasing concentrations in the tissue baths at 60-minute intervals. Tissues were not washed between increments. […] Changes in rate in response to isoproterenol, a standard β-receptor agonist, were measured in the absence and presence of test compounds. Spiral strips of guinea pig trachea were suspended under 5 gm resting tension and incubated with phentolamine, tropolone and cocaine. Active tension was generated by addition of carbachol (3.0×10^-7 M) and decreases in tension in response to isoproterenol were quantitated. Cumulative concentration-response curves were produced with isoproterenol both before and after 60-minute incubation of test compounds with atria and trachea. […] The blocking potency of test compounds was estimated by computing pA2 values (-log KB) by the method of Furchgott, the Pharmacological Differentiation of Adrenergic Receptors, Ann. […] A ratio greater than one indicates cardioselectivity. Test drugs were dissolved in distilled water and added to the bath (30 ml) in a volume of 10 or 100 μl.

Sequence of β1 receptors, guinea pig right atria (H0W3H1 1-470): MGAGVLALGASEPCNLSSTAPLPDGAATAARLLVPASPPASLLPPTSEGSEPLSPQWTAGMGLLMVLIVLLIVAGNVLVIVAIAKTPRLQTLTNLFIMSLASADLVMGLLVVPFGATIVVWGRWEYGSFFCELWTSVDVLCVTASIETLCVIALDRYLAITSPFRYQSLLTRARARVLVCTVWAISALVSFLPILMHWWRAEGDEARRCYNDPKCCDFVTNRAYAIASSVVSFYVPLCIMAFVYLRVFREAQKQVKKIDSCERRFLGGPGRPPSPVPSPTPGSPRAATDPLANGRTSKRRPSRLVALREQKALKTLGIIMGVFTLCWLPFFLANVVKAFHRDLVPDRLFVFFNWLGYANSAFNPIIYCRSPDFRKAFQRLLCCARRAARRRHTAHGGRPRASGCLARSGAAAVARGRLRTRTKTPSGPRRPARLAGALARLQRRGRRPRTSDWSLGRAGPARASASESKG

CCOC(=O)CCc1ccccc1OCC(O)CNCCNS(=O)(=O)c1ccc(C)cc1 (stereo not drawn) [No. 8 (Table IV)]
Kb [1]: 794 nM
ocular toxicity [2]: extreme ocular toxicity
Kb [3]: 126 nM

Reference: patent US4906661A, “Esters of aryloxypropanolamine derivatives” (E. I. Du Pont de Nemours and Company, priority 1989, dated 1990)
